Measured values published in ChEMBL document CHEMBL1133411, “The design, synthesis and activity of non-ATP competitive inhibitors of pp60(c-src) tyrosine kinase. Part 2: hydroxyindole derivatives” (Bioorg Med Chem Lett, 2000).
Calls of active or inactive are those of the source.

These molecules were tested against Proto-oncogene tyrosine-protein kinase Src (Homo sapiens) (UniProt P12931) (assay: Percent inhibition of human recombinant p60 c-Src tyrosine kinase at 100 uM (inactive)).
Sequence of Proto-oncogene tyrosine-protein kinase Src (Homo sapiens) (P12931 2-536 limits assumed): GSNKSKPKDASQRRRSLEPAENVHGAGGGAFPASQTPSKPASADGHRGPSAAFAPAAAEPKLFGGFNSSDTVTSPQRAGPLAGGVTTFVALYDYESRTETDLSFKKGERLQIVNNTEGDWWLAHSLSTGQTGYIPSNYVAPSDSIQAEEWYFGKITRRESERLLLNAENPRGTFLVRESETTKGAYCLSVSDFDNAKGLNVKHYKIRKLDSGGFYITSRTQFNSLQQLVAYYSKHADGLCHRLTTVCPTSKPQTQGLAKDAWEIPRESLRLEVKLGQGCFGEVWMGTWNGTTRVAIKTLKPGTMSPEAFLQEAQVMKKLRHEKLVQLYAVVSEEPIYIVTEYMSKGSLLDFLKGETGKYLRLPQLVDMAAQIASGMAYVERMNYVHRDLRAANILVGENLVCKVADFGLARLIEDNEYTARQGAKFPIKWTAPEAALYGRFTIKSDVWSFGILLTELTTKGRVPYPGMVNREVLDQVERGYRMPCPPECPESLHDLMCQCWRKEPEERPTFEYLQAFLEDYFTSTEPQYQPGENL

Row | Structure (SMILES) | inhibition
1 | O=C(O)c1ccc(CNC(=O)c2cc3cc(O)ccc3[nH]2)cc1 | inactive

These molecules were tested against Proto-oncogene tyrosine-protein kinase Src (Homo sapiens) (UniProt P12931) (assay: Percent inhibition against human recombinant p60 c-Src tyrosine kinase at 500 uM).

Row | Structure (SMILES) | inhibition [%]
2 | COC(=O)c1cc2cc(O)ccc2[nH]1 | 40

Each molecule was assayed against Proto-oncogene tyrosine-protein kinase Src (Homo sapiens) (UniProt P12931) (assay: Percent inhibition determined against human recombinant p60 c-Src tyrosine kinase at 100 uM).

Row | Structure (SMILES) | inhibition [%]
3 | O=C(NCc1ccccc1O)c1cc2cc(O)ccc2[nH]1 | 24
4 | COC(=O)c1ccc(CNC(=O)c2cc3cc(O)ccc3[nH]2)cc1 | 11
5 | COc1ccccc1CNC(=O)c1cc2cc(O)ccc2[nH]1 | 21
6 | O=C(O)Cc1ccc(NC(=O)c2cc3cc(O)ccc3[nH]2)cc1 | 7
7 | CCOC(=O)c1cc2cc(O)c(O)cc2[nH]1 | 28
8 | O=C(Nc1cccc(O)c1)c1cc2cc(O)ccc2[nH]1 | 30
9 | O=C(NCc1ccc(O)cc1)c1cc2ccccc2[nH]1 | 36
10 | O=C(NCc1ccc(O)cc1)c1cc2cc(O)ccc2[nH]1 | 54
11 | C[C@H](NC(=O)c1cc2cc(O)ccc2[nH]1)c1cccc(O)c1 | 13
12 | O=C(NCc1cccc(O)c1)c1cc2cc(O)ccc2[nH]1 | 74
13 | COc1ccccc1NC(=O)c1cc2cc(O)ccc2[nH]1 | 3
14 | COc1ccc(CNC(=O)c2cc3cc(O)ccc3[nH]2)cc1 | 18
15 | O=C(Nc1ccc(O)cc1)c1cc2cc(O)ccc2[nH]1 | 45
16 | O=C(NCc1cccc(F)c1)c1cc2cc(O)ccc2[nH]1 | 57
17 | O=C(Nc1ccccc1O)c1cc2cc(O)ccc2[nH]1 | 43
18 | COc1cccc(NC(=O)c2cc3cc(O)ccc3[nH]2)c1 | 21
19 | COC(=O)Cc1ccc(NC(=O)c2cc3cc(O)ccc3[nH]2)cc1 | 32
20 | O=C(Nc1cccc(F)c1)c1cc2cc(O)ccc2[nH]1 | 21
21 | C[C@@H](NC(=O)c1cc2cc(O)ccc2[nH]1)c1cccc(O)c1 | 15
